Experimental data as given in patent US20100298141A1, “SUBSTITUTED PYRIDINE N-OXIDE HERBICIDES” (E. I. DU PONT DE NEMOURS AND COMPANY, priority 2007, published 2010).

What was measured:
rice = assay: Test C flooded paddy test; format: in vivo, Oryza sativa; details: Flood
In short: (§1)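 Pots were flooded to 3 cm above the soil surface at treatment, compound applied directly to the paddy water, and that depth held throughout. Plants were kept in a greenhouse for 13 to 15 days, then visually rated against untreated controls.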

redroot pigweed = assay: Test A pre-/postemergence greenhouse test; format: in vivo, Amaranthus retroflexus; details: for Pigweed plant response rating: 0 to 100 scale; for Plant response rating, Pigweed: 0 to 100 scale where 0 is no effect and 100 is complete control
In short: (§2)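 Greenhouse herbicide screen, pre- and postemergence in parallel. Soil: loam plus sand. Formulation: non-phytotoxic solvent mix with surfactant. Postemergence stage: one to two leaves, 2–10 cm height. Evaluation: visual injury, compared with untreated controls, about 10 days after treatment.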

corn = assay: Test A pre-/postemergence greenhouse test; format: in vivo, Zea mays; details: for Corn plant response rating: 0 to 100 scale; for Plant response rating, Corn: 0 to 100 scale where 0 is no effect and 100 is complete control
In short: as §2

bermudagrass = assay: Test C pre-/postemergence test; format: in vivo, Cynodon dactylon; details: for Plant response rating, Bermudagrass: 31 g ai/ha; for Plant response rating (0 to 100), Bermudagrass: 250 g ai/ha
In short: (§3)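 Compounds in a non-phytotoxic solvent with surfactant applied preemergence to seeded pots and, at the same time, postemergence to plants 2–18 cm tall (1- to 4-leaf stage). Paddy tests: pots flooded to 3 cm, compound applied into the water, depth held throughout.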

wheat = assay: Test A pre-/postemergence greenhouse test; format: in vivo, Triticum aestivum; details: for Wheat plant response rating: 0 to 100 scale; for Plant response rating, Wheat: 0 to 100 scale where 0 is no effect and 100 is complete control
In short: as §2

duck salad = assay: Test C flooded paddy test; format: in vivo, Heteranthera limosa; details: Flood
In short: as §1

giant foxtail [1] = assay: Test C pre-/postemergence test; format: in vivo, Setaria faberii; details: Preemergence; for Foxtail, Giant plant response rating: 62 g ai/ha, scale 0 to 100; for Plant response rating, Foxtail, Giant: 31 g ai/ha, scale 0 to 100 (0 no effect, 100 complete control); for Plant response rating (0 to 100), Foxtail, Giant: 250 g ai/ha
In short: as §3

velvetleaf [2] = assay: Test C pre-/postemergence test; format: in vivo, Abutilon theophrasti; details: Preemergence; for Velvetleaf plant response rating: 62 g ai/ha, scale 0 to 100; for Plant response rating, Velvetleaf: 31 g ai/ha, scale 0 to 100 (0 no effect, 100 complete control)
In short: as §3

Surinam grass = assay: Test C pre-/postemergence test; format: in vivo, Brachiaria decumbens; details: Preemergence; for Surinam Grass plant response rating: 62 g ai/ha, scale 0 to 100; for Plant response rating, Surinam Grass: 31 g ai/ha, scale 0 to 100 (0 no effect, 100 complete control)
In short: as §3

common ragweed = assay: Test C pre-/postemergence test; format: in vivo, Ambrosia elation; details: Preemergence; for Ragweed plant response rating: 62 g ai/ha, scale 0 to 100; for Plant response rating, Ragweed: 31 g ai/ha, scale 0 to 100 (0 no effect, 100 complete control)
In short: as §3

eastern black nightshade = assay: Test C pre-/postemergence test; format: in vivo, Solanum ptycanthum; details: Preemergence; for Nightshade plant response rating: 62 g ai/ha, scale 0 to 100; for Plant response rating, Nightshade: 31 g ai/ha, scale 0 to 100 (0 no effect, 100 complete control)
In short: as §3

giant foxtail [3] = assay: Test A pre-/postemergence greenhouse test; format: in vivo, Setaria faberi; details: for Foxtail, Giant plant response rating: 0 to 100 scale; for Plant response rating, Foxtail, Giant: 0 to 100 scale where 0 is no effect and 100 is complete control
In short: as §2

johnsongrass = assay: Test C pre-/postemergence test; format: in vivo, Sorghum halepense; details: Preemergence; for Johnsongrass plant response rating: 62 g ai/ha, scale 0 to 100; for Plant response rating (0 to 100), Johnsongrass: 250 g ai/ha
In short: as §3

lambsquarters = assay: Test C pre-/postemergence test; format: in vivo, Chenopodium album; details: Preemergence; for Lambsquarters plant response rating: 62 g ai/ha, scale 0 to 100; for Plant response rating, Lambsquarters: 31 g ai/ha, scale 0 to 100 (0 no effect, 100 complete control)
In short: as §3

barnyardgrass = assay: Test C flooded paddy test; format: in vivo, Echinochloa crus-galli; details: Flood
In short: as §1

wild oat = assay: Test C pre-/postemergence test; format: in vivo, Avena fatua; details: Preemergence; for Oat, Wild plant response rating: 62 g ai/ha, scale 0 to 100; for Plant response rating, Oat, Wild: 31 g ai/ha, scale 0 to 100 (0 no effect, 100 complete control)
In short: as §3

velvetleaf [4] = assay: Test A pre-/postemergence greenhouse test; format: in vivo, Abutilon theophrasti; details: for Velvetleaf plant response rating: 0 to 100 scale; for Plant response rating, Velvetleaf: 0 to 100 scale where 0 is no effect and 100 is complete control
In short: as §2

Goosegrass = assay: Test C pre-/postemergence test; format: in vivo, Eleusin indica; details: Preemergence; for Goosegrass plant response rating: 62 g ai/ha, scale 0 to 100; for Plant response rating, Goosegrass: 31 g ai/ha, scale 0 to 100 (0 no effect, 100 complete control); for Plant response rating (0 to 100), Goosegrass: 250 g ai/ha
In short: as §3

[5] = 31 g ai/ha, scale 0 to 100 (0 no effect, 100 complete control)
[6] = 62 g ai/ha, scale 0 to 100, 0 no effect, 100 complete control, 13 to 15 days
[7] = 125 g ai/ha, scale 0 to 100, 0 no effect, 100 complete control, 13 to 15 days
[8] = 250 g ai/ha, scale 0 to 100 (0 no effect, 100 complete control)
[9] = Postemergence, 125 g ai/ha, 0 is no effect, 100 is complete control
[10] = Postemergence, 500 g ai/ha, 0 is no effect, 100 is complete control
[11] = Preemergence, 125 g ai/ha, 0 no effect, 100 complete control
[12] = 62 g ai/ha, Preemergence, scale 0 to 100 (0 no effect, 100 complete control)
[13] = Preemergence, scale 0 to 100 (0 no effect, 100 complete control)
[14] = preemergence, 125 g ai/ha, scale 0 (no effect) to 100 (complete control)
[15] = 250 g ai/ha, scale 0 to 100, 0 no effect, 100 complete control, 13 to 15 days

Structure (SMILES): Cc1cc[n+]([O-])c(S(=O)(=O)C(Cl)c2c(C(F)(F)F)nn(C)c2Cl)c1 (racemic) [Compound 22]
- Plant response rating, Rice (rice; [5]): 0
- Plant response rating, Rice (rice; [6]): 30
- Plant response rating, Rice (rice; [7]): 80
- Plant response rating, Rice (rice; [8]): 80
- Pigweed plant response rating (redroot pigweed; [9]): 10
- Pigweed plant response rating (redroot pigweed; [10]): 50
- Pigweed plant response rating (redroot pigweed; [11]): 100
- Plant response rating, Pigweed (redroot pigweed; Preemergence, 500 g ai/ha): 100
- Corn plant response rating (corn; [9]): 0
- Corn plant response rating (corn; [10]): 30
- Corn plant response rating (corn; [11]): 0
- Plant response rating, Corn (corn; Preemergence, 500 g ai/ha): 20
- Bermudagrass plant response rating (bermudagrass; [12]): 100
- Plant response rating, Bermudagrass (bermudagrass; [13]): 70
- Plant response rating (0 to 100), Bermudagrass (bermudagrass; Preemergence): 100
- Bermudagrass plant response rating (bermudagrass; [14]): 100
- Wheat plant response rating (wheat; [9]): 0
- Wheat plant response rating (wheat; [10]): 40
- Wheat plant response rating (wheat; [11]): 20
- Plant response rating, Wheat (wheat; Preemergence, 500 g ai/ha): 50
- Plant response rating, Ducksalad (duck salad; [5]): 20
- Plant response rating, Ducksalad (duck salad; [6]): 80
- Plant response rating, Ducksalad (duck salad; [7]): 85
- Plant response rating, Ducksalad (duck salad; [8]): 90
- Foxtail, Giant plant response rating (giant foxtail [1]): 80
- Plant response rating, Foxtail, Giant (giant foxtail [1]): 80
- Plant response rating (0 to 100), Foxtail, Giant (giant foxtail [1]): 100
- Velvetleaf plant response rating (velvetleaf [2]): 0
- Plant response rating, Velvetleaf (velvetleaf [2]): 0
- Surinam Grass plant response rating (Surinam grass): 60
- Plant response rating, Surinam Grass (Surinam grass): 10
- Ragweed plant response rating (common ragweed): 80
- Plant response rating, Ragweed (common ragweed): 0
- Nightshade plant response rating (eastern black nightshade): 85
- Plant response rating, Nightshade (eastern black nightshade): 0
- Foxtail, Giant plant response rating (giant foxtail [3]; [9]): 50
- Foxtail, Giant plant response rating (giant foxtail [3]; [10]): 80
- Foxtail, Giant plant response rating (giant foxtail [3]; [11]): 100
- Plant response rating, Foxtail, Giant (giant foxtail [3]; Preemergence, 500 g ai/ha): 100
- Johnsongrass plant response rating (johnsongrass): 10
- Plant response rating (0 to 100), Johnsongrass (johnsongrass): 70
- Lambsquarters plant response rating (lambsquarters): 100
- Plant response rating, Lambsquarters (lambsquarters): 0
- Plant response rating, Barnyardgrass (barnyardgrass; [5]): 10
- Plant response rating, Barnyardgrass (barnyardgrass; [6]): 20
- Plant response rating, Barnyardgrass (barnyardgrass; [7]): 80
- Plant response rating, Barnyardgrass (barnyardgrass; [8]): 85
- Oat, Wild plant response rating (wild oat): 45
- Plant response rating, Oat, Wild (wild oat): 0
- Velvetleaf plant response rating (velvetleaf [4]; [9]): 0
- Velvetleaf plant response rating (velvetleaf [4]; [10]): 40
- Velvetleaf plant response rating (velvetleaf [4]; [11]): 10
- Plant response rating, Velvetleaf (velvetleaf [4]; Preemergence, 500 g ai/ha): 60
- Goosegrass plant response rating (Goosegrass): 100
- Plant response rating, Goosegrass (Goosegrass): 100
- Plant response rating (0 to 100), Goosegrass (Goosegrass): 100

Structure (SMILES): Cc1cc[n+]([O-])c([S+]([O-])Cc2c(C(F)(F)F)nn(C)c2OCC(F)(F)F)c1 (racemic) [Compound 30]
- Plant response rating, Rice (rice; [5]): 0
- Plant response rating, Rice (rice; [6]): 0
- Plant response rating, Rice (rice; [7]): 20
- Plant response rating, Rice (rice; [15]): 80
- Pigweed plant response rating (redroot pigweed; [9]): 90
- Pigweed plant response rating (redroot pigweed; [10]): 100
- Pigweed plant response rating (redroot pigweed; [11]): 100
- Plant response rating, Pigweed (redroot pigweed; Preemergence, 500 g ai/ha): 100
- Corn plant response rating (corn; [9]): 50
- Corn plant response rating (corn; [10]): 60
- Corn plant response rating (corn; [11]): 0
- Plant response rating, Corn (corn; Preemergence, 500 g ai/ha): 70
- Bermudagrass plant response rating (bermudagrass; [12]): 100
- Plant response rating, Bermudagrass (bermudagrass; [13]): 100
- Plant response rating (0 to 100), Bermudagrass (bermudagrass; Preemergence): 100
- Bermudagrass plant response rating (bermudagrass; [14]): 100
- Wheat plant response rating (wheat; [9]): 60
- Wheat plant response rating (wheat; [10]): 70
- Wheat plant response rating (wheat; [11]): 80
- Plant response rating, Wheat (wheat; Preemergence, 500 g ai/ha): 90
- Plant response rating, Ducksalad (duck salad; [5]): 65
- Plant response rating, Ducksalad (duck salad; [6]): 75
- Plant response rating, Ducksalad (duck salad; [7]): 100
- Plant response rating, Ducksalad (duck salad; [15]): 100
- Foxtail, Giant plant response rating (giant foxtail [1]): 100
- Plant response rating, Foxtail, Giant (giant foxtail [1]): 100
- Plant response rating (0 to 100), Foxtail, Giant (giant foxtail [1]): 100
- Velvetleaf plant response rating (velvetleaf [2]): 100
- Plant response rating, Velvetleaf (velvetleaf [2]): 70
- Surinam Grass plant response rating (Surinam grass): 100
- Plant response rating, Surinam Grass (Surinam grass): 60
- Ragweed plant response rating (common ragweed): 60
- Plant response rating, Ragweed (common ragweed): 0
- Nightshade plant response rating (eastern black nightshade): 100
- Plant response rating, Nightshade (eastern black nightshade): 100
- Foxtail, Giant plant response rating (giant foxtail [3]; [9]): 80
- Foxtail, Giant plant response rating (giant foxtail [3]; [10]): 90
- Foxtail, Giant plant response rating (giant foxtail [3]; [11]): 100
- Plant response rating, Foxtail, Giant (giant foxtail [3]; Preemergence, 500 g ai/ha): 100
- Johnsongrass plant response rating (johnsongrass): 100
- Plant response rating, Johnsongrass (johnsongrass; [5]): 85
- Plant response rating (0 to 100), Johnsongrass (johnsongrass): 100
- Lambsquarters plant response rating (lambsquarters): 100
- Plant response rating, Lambsquarters (lambsquarters): 100
- Plant response rating, Barnyardgrass (barnyardgrass; [5]): 0
- Plant response rating, Barnyardgrass (barnyardgrass; [6]): 0
- Plant response rating, Barnyardgrass (barnyardgrass; [7]): 20
- Plant response rating, Barnyardgrass (barnyardgrass; [15]): 65
- Oat, Wild plant response rating (wild oat): 60
- Plant response rating, Oat, Wild (wild oat): 10
- Velvetleaf plant response rating (velvetleaf [4]; [9]): 50
- Velvetleaf plant response rating (velvetleaf [4]; [10]): 70
- Velvetleaf plant response rating (velvetleaf [4]; [11]): 90
- Plant response rating, Velvetleaf (velvetleaf [4]; Preemergence, 500 g ai/ha): 100
- Goosegrass plant response rating (Goosegrass): 100
- Plant response rating, Goosegrass (Goosegrass): 98
- Plant response rating (0 to 100), Goosegrass (Goosegrass): 100
